Measurements taken from ChEMBL document CHEMBL5634193, “Discovery of CVN293, a Brain Permeable KCNK13 (THIK-1) Inhibitor Suitable for Clinical Assessment” (ACS Med Chem Lett, 2024).
Values after ≈ are worked out from the molar mass of the structure shown.

How the values were obtained:
[1] = Metabolic stability in rat liver microsomes assessed as intrinsic clearance; assay type: ADME, Microsome; conditions: read-out: CLH
[2] = biological target: T1, Potassium channel subfamily K member 13 (Mus musculus, UniProt Q8R1P5); test: Inhibition of mouse KCNK13 transfected in HEK293 cells; assay type: cell-based
T1 sequence (Q8R1P5 whole entry): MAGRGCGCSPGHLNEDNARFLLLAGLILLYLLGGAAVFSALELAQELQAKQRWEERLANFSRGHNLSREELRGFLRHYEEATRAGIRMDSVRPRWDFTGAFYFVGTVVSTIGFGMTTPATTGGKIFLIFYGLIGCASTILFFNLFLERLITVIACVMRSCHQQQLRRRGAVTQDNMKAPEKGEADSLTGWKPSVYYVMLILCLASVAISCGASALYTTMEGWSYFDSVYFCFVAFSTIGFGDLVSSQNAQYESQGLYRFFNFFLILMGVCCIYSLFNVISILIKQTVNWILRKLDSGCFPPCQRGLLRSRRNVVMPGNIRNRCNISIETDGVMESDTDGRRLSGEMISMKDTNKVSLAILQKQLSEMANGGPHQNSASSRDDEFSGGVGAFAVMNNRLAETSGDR

[3] = Kinetic aqueous solubility of compound at pH 7.4; assay type: physicochemical; conditions: buffer, read-out: Kinetic_solubility
[4] = Unbound drug concentration in C57BL/6 mouse plasma at 10 mg/kg, po measured after 4 hrs by LC-MS/MS analysis; assay type: ADME, organism-based; conditions: in vivo
[5] = Ratio of drug concentration in brain to plasma C57BL/6 mouse at 10 mg/kg, po measured after 4 hrs by LC-MS/MS analysis; assay type: ADME, organism-based; conditions: brain and plasma, read-out: BPR
[6] = biological target: T2, Potassium channel subfamily K member 13 (Homo sapiens, UniProt Q9HB14); test: Inhibition of human KCNK13 transfected in HEK293 cells; assay type: cell-based
T2 sequence (Q9HB14 whole entry): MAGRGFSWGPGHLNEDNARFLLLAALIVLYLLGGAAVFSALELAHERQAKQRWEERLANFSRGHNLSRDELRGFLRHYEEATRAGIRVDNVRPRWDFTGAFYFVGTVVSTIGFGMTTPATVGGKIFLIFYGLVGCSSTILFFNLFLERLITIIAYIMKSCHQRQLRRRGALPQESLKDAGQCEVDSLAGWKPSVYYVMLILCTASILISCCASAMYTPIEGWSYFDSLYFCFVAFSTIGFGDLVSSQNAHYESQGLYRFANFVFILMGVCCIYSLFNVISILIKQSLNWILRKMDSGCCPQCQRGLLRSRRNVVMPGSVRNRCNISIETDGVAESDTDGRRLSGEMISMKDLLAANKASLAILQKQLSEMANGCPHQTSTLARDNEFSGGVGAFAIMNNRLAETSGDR

[7] = Ratio of unbound drug concentration in brain to plasma C57BL/6 mouse at 10 mg/kg, po measured after 4 hrs by LC-MS/MS analysis; assay type: ADME, organism-based; conditions: brain and plasma, read-out: K(p,uu,brain)
[8] = Protein binding in mouse plasma assessed as unbound fraction by equilibrium dialysis; assay type: ADME, cell-free
[9] = Metabolic stability in human liver microsomes assessed as intrinsic clearance; assay type: ADME, Microsome; conditions: read-out: CLH
[10] = Metabolic stability in mouse liver microsomes assessed as intrinsic clearance; assay type: ADME, Microsome; conditions: read-out: CLH
[11] = Unbound drug concentration in C57BL/6 mouse brain at 10 mg/kg, po measured after 4 hrs by LC-MS/MS analysis; assay type: ADME, organism-based; conditions: in vivo
[12] = Protein binding in mouse brain assessed as unbound fraction by equilibrium dialysis; assay type: ADME, tissue-based

Row | microsomal CLint [1] [µL/min/mg] | IC50 [2] [nM] | solubility kinetic [3] [µM] | Cp(f) [4] [µM] | Kp at 4 h [5] | IC50 [6] [nM] | Kp uu at 4 h [7] | fraction unbound [8] | microsomal CLint [9] [µL/min/mg] | microsomal CLint [10] [µL/min/mg] | Cp(f) [11] [µM] | fraction unbound [12] | Structure (SMILES)
1 | 68 | 62 | 10 (≈ 3.11 µg/mL) | 0.009 | 0.56 | 47 | 2.2 | 0.138 | 21 | 50 | 0.018 | 0.077 | Nc1nonc1-c1nc2cccc(F)c2n1Cc1cnccn1
2 | – | – | – | – | – | 2940 | – | – | – | – | – | – | c1ccc2c(c1)nc(-c1cocn1)n2Cc1ccncc1
3 | 14 | – | < 0.3 | – | – | 42 | – | – | 19 | 28 | – | – | Nc1nonc1-c1nc2cc(F)ccc2n1Cc1ccncc1
4 | 12.6 | 42 | 12.9 (≈ 4.25 µg/mL) | 0.793 | 0.96 | 37 | 0.8 | 0.159 | 9.6 | 10.1 | 0.63 | 0.13 | Nc1nonc1-c1nc2c(F)ccc(F)c2n1Cc1cccnn1
5 | – | – | – | – | – | 3430 | – | – | – | – | – | – | c1ccc2c(c1)nc(-c1ncc[nH]1)n2Cc1ccncc1
6 | 31.6 | – | 10.4 (≈ 3.24 µg/mL) | 0.009 | 0.68 | 50 | 1.9 | 0.188 | 9.6 | 13.9 | 0.018 | 0.128 | Nc1nonc1-c1nc2cccc(F)c2n1Cc1ccnnc1
7 | 47 | – | – | – | – | 89 | – | – | 45 | – | – | – | Cc1nonc1-c1nc2ccccc2n1Cc1ccncc1
8 | 56 | – | – | – | – | – | – | – | 24 | – | – | – | Nc1nonc1-c1nc2ccccc2n1Cc1ccncc1
9 | 24 | 26 | 6.5 (≈ 2.02 µg/mL) | – | – | 49 | – | 0.129 | 10 | 18 | – | 0.057 | Nc1nonc1-c1nc2cccc(F)c2n1Cc1cncnc1
10 | 15.4 | – | 3.9 (≈ 1.28 µg/mL) | 0.08 | 1.17 | 50 | 0.7 | 0.161 | < 9.6 | < 9.6 | 0.056 | 0.097 | Nc1nonc1-c1nc2ccc(F)c(F)c2n1Cc1cccnn1
11 | 40 | 35 | 8.4 (≈ 2.82 µg/mL) | – | – | 50 | – | 0.071 | 9.6 | 37 | – | 0.064 | N#Cc1ccc(Cn2c(-c3nonc3N)nc3cccc(F)c32)nn1
12 | – | – | – | – | – | 9200 | – | – | – | – | – | – | c1ccc2c(c1)nc(-c1ccn[nH]1)n2Cc1ccncc1
13 | 27 | – | < 0.3 | – | – | 55 | – | – | 25 | 74 | – | – | Nc1nonc1-c1nc2c(F)cccc2n1Cc1ccncc1
14 | – | – | – | – | – | > 22000 | – | – | – | – | – | – | Nc1ncccc1-c1nc2ccccc2n1Cc1ccncc1
15 | 10 | – | < 0.3 | – | – | 34 | – | – | 37 | 58 | – | – | Nc1nonc1-c1nc2ccc(F)cc2n1Cc1ccncc1
16 | 77 | – | 9.9 (≈ 3.08 µg/mL) | – | – | 46 | – | 0.111 | 10 | 30 | – | 0.091 | Nc1nonc1-c1nc2cccc(F)c2n1Cc1ccncn1
17 | – | 74 | 1.6 (≈ 0.607 µg/mL) | – | – | 84 | – | 0.035 | 18.3 | 245 | – | 0.024 | Nc1nonc1-c1nc2cccc(F)c2n1Cc1ccc(C(F)(F)F)nn1
18 | 45 | – | – | – | – | > 22000 | – | – | 34 | – | – | – | CC(=O)Nc1nonc1-c1nc2ccccc2n1Cc1ccncc1
19 | 22 | – | 3.7 (≈ 1.15 µg/mL) | – | – | 46 | – | – | 14 | 66 | – | – | Nc1nonc1-c1nc2cccc(F)c2n1Cc1ccncc1
